# Source: publication PMC11487390, “Design and Synthesis of 1,3-Diarylpyrazoles and Investigation of Their Cytotoxicity and Antiparasitic Profile” (International Journal of Molecular Sciences, 2024)
# Counter-ions that a name gives are not always drawn. Like-named read-outs stand apart in the source and are kept apart here.
# Tests used:
# [1] = test system: L. infantum MHOM/MA(BE)/67 strain; experiment: L. infantum intracellular amastigote assay in PMM (Giemsa, 5 days); assay type: cell-based, Leishmania infantum
# Protocol: (§1) The MRC-5SV2 human lung fibroblast cell line was cultured in MEM + Earle’s salts-medium, supplemented with 2 mM L-glutamine, 16.5 mM NaHCO3, and 5% inactivated fetal calf serum. For evaluating the antileishmanial activity, the L. infantum MHOM/MA(BE)/67 strain was used. This strain was maintained in a Golden hamster (Mesocricetus auratus). Amastigotes were collected from the spleen of an infected donor hamster using differential centrifugation. Primary peritoneal mouse macrophages were used as host cells and were collected 2 days after peritoneal stimulation with a 2% potato starch suspension. For the intracellular T. cruzi assays, the Tulahuen CL2 strain was used that expresses β-galactosidase. The strain was maintained in MRC-5SV2 cells in MEM medium. The T. b. brucei Squib 427 strain or T. b. rhodesiense STIB-900 strain was used for screening against the extracellular African trypanosomes. The strains were maintained in Hirumi’s Modified Iscove’s medium-9 (HMI-9), supplemented with 10% inactivated fetal calf serum. All cultures and assays were performed at 37 °C with 5% CO2.
# (§2) Compound stock solutions were prepared in 100% DMSO at 20 mM. The compounds were serially pre-diluted by robotic plate production (4-fold) in DMSO followed by a further (intermediate) dilution in demineralized water to assure a final in-test DMSO concentration of <1%. Identical test plates containing 10 µL of the different concentrations of each compound were produced for the different assays. For the cytotoxicity assays, 5 concentrations per compound were tested (64–16–4–1–0.25 µM). For the parasitic assays, 10 concentrations per compound were tested, ranging from 64 µM to 0.2 nM.
# Primary peritoneal mouse macrophages (PMMs) were prepared in RPMI-1640 medium, supplemented with 2 mM L-glutamine, 16.5 mM NaHCO3, and 5% inactivated fetal calf serum. The macrophages are infected after 48 h with spleen-derived L. infantum amastigotes (3 × 10^4 PMM + 4.5 × 10^5 parasites/well). The compounds were added after 2 h of infection. After 5 days incubation, parasite burdens (mean number of amastigotes/macrophage) were assessed microscopically after staining with a 10% Giemsa solution and EC50 values were calculated.
# [2] = test system: Trypanosoma cruzi Tulahuen CL2 strain; experiment: Intracellular T. cruzi assay in MRC-5 cells (β-galactosidase/CPRG, 7 days); assay type: cell-based; conditions: Trypanosoma cruzi, TULAHUEN, MRC5, 168 h, intracellular in MRC-5 cells
# Protocol: as §1, §2
# MRC-5 cells were infected in 96-well plates using a harvested T. cruzi inoculum (4 × 10^3 MRC-5 cells/well + 4 × 10^4 parasites/well) and exposed to 10 µL of the compound dilutions (200 µL/well total volume). Parasite growth determined after 7 days of incubation and compared to untreated infected controls following the addition of the substrate CPRG (chlorophenolred ß-D-galactopyranoside): 50 µL/well of a stock solution containing 15.2 mg CPRG + 250 µL Nonidet in 100 mL PBS. The absorbance was measured spectrophotometrically at 540 nm after 4 h incubation at 37 °C and EC50 values were calculated.
# [3] = Cytotoxicity assay, MRC-5SV2 cells, resazurin, 3 days; assay type: cell-based; conditions: human, MRC-5SV2 human lung fibroblast cells, MRC-5 cells, highest concentration 64 µM
# Protocol: The series of final products (13–69) was investigated in vitro on the human fetal lung fibroblast cell line MRC-5 (Table 1) to assess cytotoxicity toward normal (i.e., non-malignant) human cells. […] As explained earlier, these are important pathogens for humans or cattle (T. b. brucei) and a persistent need for new therapeutics exists for these parasites. As a part of the antiparasitic tests, cytotoxicity against primary mouse macrophages (PMMs) was also evaluated. These murine cells serve as host cells for parasites in the L. infantum assay. Therefore, the murine macrophage assay not only offers additional cytotoxicological insight but is also essential to interpreting the readout of the L. infantum assay.
# as §1, §2
# Assays were performed in sterile 96-well microtiter plates, each well containing 10 µL of the watery compound dilutions together with 190 µL of MRC-5SV2 inoculum (1.5 × 10^5 cells/mL). Cell growth was compared to untreated control wells (100% cell growth) and medium-control wells (0% cell growth). After 3 days incubation, MRC-5 viability was assessed fluorimetrically after addition of 50 μL resazurin per well (final concentration of 10 µg mL^−1). After 4 h at 37 °C, fluorescence was measured (λex 550 nm, λem 590 nm). The results were expressed as % reduction in cell growth/viability compared to positive (100% growth–0% inhibition) and negative (0% growth–100% inhibition) control wells from which EC50 values (50% effective concentrations) were derived using an excel macro that calculates the interpolation of the concentrations corresponding to the flanking points, just above and just below 50% inhibition.
# [4] = test system: T. b. brucei Squib 427 strain; experiment: T. b. brucei growth assay (resazurin, 3 days); assay type: cell-based, Trypanosoma brucei brucei; conditions: Trypanosoma brucei, 72 h
# Protocol: as §1, §2
# (§3) Parasite suspensions (1.5 × 10^4 T. b. brucei/well or 4 × 10^3 T. b. rhodesiense/well) in HMI-9 medium were exposed in a total volume of 200 µL to 10 µL of the compound dilutions Parasite growth was assessed fluorimetrically after 3 days of incubation by the addition of 50 µL resazurin per well. After 6 h (T. b. rhodesiense) or 24 h (T. b. brucei) at 37 °C, fluorescence was measured (λex 550 nm, λem 590 nm), from which viability and EC50 values could be determined.
# [5] = test system: T. b. rhodesiense STIB-900 strain; experiment: T. b. rhodesiense growth assay (resazurin, 3 days); assay type: cell-based, Trypanosoma brucei rhodesiense; conditions: Trypanosoma brucei, RHODESIENSE, 72 h
# Protocol: as §1, §2, §3
# [6] = Leishmania infantum, 120 h, read-out: L. inf. (EC50, µM), amastigotes in PMM, 5 days
# [7] = read-out: T. b. bruc. (EC50, µM), 3 days
# [8] = read-out: T. b. rhod. (EC50, µM), 3 days
# [9] = Leishmania infantum, 120 h, amastigotes in PMM, 5 days, read-out: L. inf. (EC50)
# [10] = 3 days, read-out: T. b. bruc. (EC50)
# [11] = 3 days, read-out: T. b. rhod. (EC50)
SMILES,"EC50 [1, 6] [µM]",EC50 [2] [µM],EC50 at 3 days [3] [µM],"EC50 [4, 7] [µM]","EC50 [5, 8] [µM]","EC50 [1, 9] [µM]","EC50 [4, 10] [µM]","EC50 [5, 11] [µM]","EC50 ([1]; read-out: L. inf. (EC50), amastigotes in PMM, 5 days) [µM]"
"c1ccc(-n2cc(CNCCN3CCCC3)c(-c3ccc4c(c3)OCCO4)n2)nc1 [Compound 69, N-((3-(2,3-dihydrobenzo[b][1,4]dioxin-6-yl)-1-(pyridin-2-yl)-1H-pyrazol-4-yl)methyl)-2-(pyrrolidin-1-yl)ethan-1-amine dihydrochloride]",> 64,> 64,> 64,22.7,24.8,,,,
"O=C(NCc1cn(-c2ccccc2)nc1-c1ccc2c(c1)OCCO2)Nc1ccc(F)cc1 [Compound 54, 1-((3-(2,3-dihydrobenzo[b][1,4]dioxin-6-yl)-1-phenyl-1H-pyrazol-4-yl)methyl)-3-(4-fluorophenyl)urea]",,> 64,> 64,,,> 64,> 64,> 64,
"c1ccc(Cc2cn(-c3ccccc3)nc2-c2ccc3c(c2)OCCO3)cc1 [Compound 49, 4-benzyl-3-(2,3-dihydrobenzo[b][1,4]dioxin-6-yl)-1-phenyl-1H-pyrazole]",,7.35,59.5,,,38.1,29.3,16.5,
"c1ccc(-n2cc(CNCCc3ccccn3)c(-c3ccc4c(c3)OCO4)n2)cc1 [Compound 59, N-((3-(benzo[d] [1,3]dioxol-5-yl)-1-phenyl-1H-pyrazol-4-yl)methyl)-2-(pyridin-2-yl)ethan-1-amine hydrochloride]",8.06,6.71,26.6,1.64,1.61,,,,
"c1ccc(Cn2cc(COCc3cn(-c4ccccc4)nc3-c3ccc4c(c3)OCCO4)nn2)cc1 [Compound 48, 1-benzyl-4-(((3-(2,3-dihydrobenzo[b][1,4]dioxin-6-yl)-1-phenyl-1H-pyrazol-4-yl)methoxy)methyl)-1H-1,2,3-triazole]",,> 64,> 64,,,32.5,> 64,1.78,
"Clc1ccc(Cc2cn(-c3ccccc3)nc2-c2ccc3c(c2)OCCO3)cc1 [Compound 50, 4-(4-chlorobenzyl)-3-(2,3-dihydrobenzo[b][1,4]dioxin-6-yl)-1-phenyl-1H-pyrazole]",,7.53,> 64,,,12.7,27.2,8.52,
"CNC(=O)c1cc(Oc2ccc(NCc3cn(-c4ccccc4)nc3-c3ccc4c(c3)OCO4)cc2)ccn1 [Compound 60, 4-(4-(((3-(benzo[d] [1,3]dioxol-5-yl)-1-phenyl-1H-pyrazol-4-yl)methyl)amino)phenoxy)-N-methylpicolinamide]",,> 64,60.7,,,32.5,> 64,5.18,
"COc1ccc(-c2nn(-c3ccccc3)cc2COCc2ccc(F)cc2)cc1 [Compound 68, 4-(((4-fluorobenzyl)oxy)methyl)-3-(4-methoxyphenyl)-1-phenyl-1H-pyrazole]",,5.33,> 64,,,36.8,29.6,11.4,
"FCc1cn(-c2ccccc2)nc1-c1ccc2c(c1)OCCO2 [Compound 52, 3-(2,3-dihydrobenzo[b][1,4]dioxin-6-yl)-4-(fluoromethyl)-1-phenyl-1H-pyrazole]",,23.9,22.6,,,> 64,> 64,27.1,
"COc1ccc(-c2nn(-c3ccccc3)cc2CNCCc2ccccn2)cc1 [Compound 64, N-((3-(4-methoxyphenyl)-1-phenyl-1H-pyrazol-4-yl)methyl)-2-(pyridin-2-yl)ethan-1-amine hydrochloride]",8.06,7.15,28.9,1.7,1.57,,,,
"FC(F)c1cn(-c2ccccc2)nc1-c1ccc2c(c1)OCCO2 [Compound 53, 4-(difluoromethyl)-3-(2,3-dihydrobenzo[b][1,4]dioxin-6-yl)-1-phenyl-1H-pyrazole]",,6.44,21.8,,,32.5,30.3,19,
"O=C(NCCc1ccccc1)c1cn(-c2ccccc2)nc1-c1ccc2c(c1)OCCO2 [Compound 34, 3-(2,3-dihydrobenzo[b][1,4]dioxin-6-yl)-N-phenethyl-1-phenyl-1H-pyrazole-4-carboxamide]",,> 64,1.54,,,> 64,> 64,4.74,
"COc1ccc(-c2nn(-c3ccccc3)cc2CN2CCCC2)cc1 [Compound 65, 3-(4-methoxyphenyl)-1-phenyl-4-(pyrrolidin-1-ylmethyl)-1H-pyrazole oxalate]",,28.9,32,,,33.2,6.87,6.43,
"COc1ccc(-c2nn(-c3ccccc3)cc2CN2CCOCC2)cc1 [Compound 66, 4-((3-(4-methoxyphenyl)-1-phenyl-1H-pyrazol-4-yl)methyl)morpholine hydrochloride]",34.6,22.4,> 64,27.8,20.5,,,,
"O=C(NCCN1CCOCC1)c1cn(-c2ccccc2)nc1-c1ccc2c(c1)OCCO2 [Compound 44, 3-(2,3-dihydrobenzo[b][1,4]dioxin-6-yl)-N-(2-morpholinoethyl)-1-phenyl-1H-pyrazole-4-carboxamide hydrochloride]",9.51,64,> 64,> 64,19,,,,8.3
"c1ccc(-n2cc(COCc3cn(-c4ccccc4)nc3-c3ccc4c(c3)OCCO4)nn2)cc1 [Compound 46, 4-(((3-(2,3-dihydrobenzo[b][1,4]dioxin-6-yl)-1-phenyl-1H-pyrazol-4-yl)methoxy)methyl)-1-phenyl-1H-1,2,3-triazole]",,> 64,> 64,,,32.5,9.04,2.18,
"O=C(NCCN1CCCC1)c1cn(-c2ccccc2)nc1-c1ccc2c(c1)OCCO2 [Compound 42, 3-(2,3-dihydrobenzo[b][1,4]dioxin-6-yl)-1-phenyl-N-(2-(pyrrolidin-1-yl)ethyl)-1H-pyrazole-4-carboxamide oxalate]",,21.7,28,,,27.3,7.15,6.43,
